Columns and labels:
clinical strains of HIV = system: clinical strains of HIV; parameters: method as in PMID 23555254, PMID 17706876; conditions: cited from earlier work
ERK1/2 = ERK1/2 activation (phospho/total) by western blot in HeLa rtTA-HIV(Gag-GFP) cells; type: cell-based, human; conditions: relative to DMSO (+)
Protocol: Figure 6 CSs control HIV-1 gene expression through intracellular signaling. HeLa rtTA-HIV(Gag-GFP) cells were pre-treated with/without pathway inhibitor overnight (~15 h) and treated with ~IC80s of CSs. […] (a–c) ERK1/2, MK-2, and JNK1/2/3 are activated upon treatment of cells with CSs (n ≥ 4–6, 3–4, and 3–6, resp., mean, s.e.m.). Graphs quantifying the activation level (phospho/total protein) of each MAP/MAPK by western blot. In (a), the results of pre-treating cells with a MEK1/2 inhibitor (12 μM U0126, MEKi) on ERK1/2 activation is also shown and a representative immunoblot is provided in Supplementary Figure S9c. (d) Representative immunoblots of MAP/MAPK activation levels from (a–c). (e–g) MEK1/2 activation may be involved in CS inhibition of HIV-1 gene expression. The signaling pathway(s) used by a CS to inhibit HIV-1 expression was determined by detecting Gag-GFP fluorescence in cell lysates (~35 μg) by reducing SDS-PAGE after pre-treatment of cells with a MEK1/2 (12 μM U0126, white), p38α/β/β2 (15 μM SB203580/p38i, gray), or JNK1/2/3 (1.25 μM SP600125/JNKi, hatched) inhibitor (n ≥ 5–7, 4–8, and 3–7, resp., mean, s.e.m.). Results were shown relative to DMSO (+). […]
Figure 7 Activation of the MEK1/2-ERK1/2 signaling pathway suppresses HIV-1 gene expression. […] RNAs were quantified by qRT-PCR as described in Figures 4a,b. […]

**Q.** With C[C@H]1O[C@@H](O[C@H]2[C@@H](O)C[C@H](O[C@H]3[C@@H](O)C[C@H](O[C@H]4CC[C@@]5(C)[C@H](CC[C@@H]6[C@@H]5C[C@@H](O)[C@]5(C)[C@@H](C7=CC(=O)OC7)CC[C@]65O)C4)O[C@@H]3C)O[C@@H]2C)C[C@H](O)[C@@H]1O [Digoxin] as the molecule, how does the “effective ex vivo concentration, fold below serum concentration of patients treated for heart conditions (digoxin)” value (clinical strains of HIV) read?
**A.** 2–6 fold

**Q.** With COc1ccc(C[C@H]2NC[C@H](O)[C@H]2OC(C)=O)cc1 [anisomycin, Anisomycin] as the molecule, how does the ERK1/2 activation (ERK1/2) read?
**A.** activated

Reference: publication PMC5770468, “Cardiac glycoside/aglycones inhibit HIV-1 gene expression by a mechanism requiring MEK1/2-ERK1/2 signaling” (Scientific Reports, 2018)
